Assays:
crabgrass = test: Test B pre/postemergence crabgrass; format: in vivo, Digitaria sanguinalis
Outline: (§1)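 Herbicidal effect was estimated by eye on a ten-point control scale after plants spent twelve to sixteen days in a greenhouse following soil or foliar treatment. Foliar sprays targeted plants at one to four leaves; all doses were formulated in a non-phytotoxic solvent with surfactant.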

soybean = test: Test B pre/postemergence soybean; format: in vivo, Glycine max
Outline: as §1

duck salad = test: Test B flood test duck salad; format: in vivo, Heteranthera limosa
Outline: (§2)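 Flood test on plants grown to the 2-leaf stage; treated plants kept in greenhouse twelve to sixteen days, then visually rated against controls on a 0 (no effect) to 10 (complete control) scale.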

smallflower flatsedge = test: Test B flood test smallflower flatsedge; format: in vivo, Cyperus difformis
Outline: as §2

surinam grass = test: Test B pre/postemergence surinam grass; format: in vivo, Brachiaria decumbens
Outline: as §1

wheat = test: Test B pre/postemergence wheat; format: in vivo, Triticum aestivum
Outline: as §1

rice = test: Test B flood test rice; format: in vivo, Oryza sativa
Outline: as §2

rape = test: Test B pre/postemergence rape; format: in vivo, Brassica napus
Outline: as §1

velvetleaf = test: Test B pre/postemergence velvetleaf; format: in vivo, Abutilon theophrasti
Outline: as §1

morningglory = test: Test B pre/postemergence morningglory; format: in vivo, Ipomoea hederacea
Outline: as §1

cocklebur = test: Test B pre/postemergence cocklebur; format: in vivo, Xanthium strumarium
Outline: as §1

purple nutsedge = test: Test B pre/postemergence purple nutsedge; format: in vivo, Cyperus rotundus
Outline: as §1

blackgrass = test: Test B pre/postemergence blackgrass; format: in vivo, Alopecurus myosuroides
Outline: as §1

wild oat = test: Test B pre/postemergence wild oat; format: in vivo, Avena fatua
Outline: as §1

sugar beet = test: Test B pre/postemergence sugar beet; format: in vivo, Beta vulgaris
Outline: as §1

giant foxtail = test: Test B pre/postemergence giant foxtail; format: in vivo, Setaria faberii
Outline: as §1

bamyardgrass = test: Test B flood test barnyardgrass; format: in vivo, Echinochloa crus-galli
Outline: as §2

corn = test: Test B pre/postemergence corn; format: in vivo, Zea mays
Outline: as §1

pigweed = test: Test B pre/postemergence pigweed; format: in vivo, Amaranthus retroflexus
Outline: as §1

[1] = Postemergence, Rate 62 g/ha, scale 0 to 10, 0 is no effect, 10 is complete control
[2] = Postemergence, Rate 125 g/ha, scale of 0 to 10 where 0 is no effect and 10 is complete control
[3] = Postemergence, Rate 250 g/ha, scale of 0 to 10, 0 is no effect, 10 is complete control
[4] = Preemergence, Rate 62 g/ha, scale of 0 to 10 where 0 is no effect and 10 is complete control
[5] = Preemergence, Rate 125 g/ha, scale of 0 to 10 where 0 is no effect and 10 is complete control
[6] = Preemergence, Rate 250 g/ha, scale 0 to 10 (0 no effect, 10 complete control)
[7] = Preemergence, Rate 500 g/ha, scale of 0 to 10 where 0 is no effect and 10 is complete control
[8] = Rate 500 g/ha, Postemergence, scale 0 to 10, 0 is no effect, 10 is complete control
[9] = Rate 62 g/ha, flood test species, Pre-emergence, visual evaluation after twelve to sixteen days
[10] = Rate 125 g/ha, under heading Pre-emergence, flood test species, visual evaluation after twelve to sixteen days
[11] = Rate 250 g/ha, Pre-emergence (flood test species), scale 0 to 10, 0 is no effect, 10 is complete control
[12] = Rate 500 g/ha, Pre-emergence section of Table B, 0 to 10 scale (0 no effect, 10 complete control)

CC(C)N(C(=O)n1oc(=O)n(C(C)C)c1=O)c1ccncc1 [Compound 663]
Plant response rating, Crabgrass (crabgrass; [1]): 0 | Crabgrass plant response rating (crabgrass; [2]): 0 | Crabgrass plant response rating (crabgrass; [3]): 0 | Crabgrass plant response rating (crabgrass; [4]): 0 | Crabgrass plant response rating (crabgrass; [5]): 0 | Plant response rating, Crabgrass (crabgrass; [6]): 0 | Plant response rating, Crabgrass (crabgrass; [7]): 0 | Crabgrass plant response rating (crabgrass; [8]): 4 | Soybean plant response rating (soybean; [2]): 0 | Soybean plant response rating (soybean; [4]): 0 | Soybean plant response rating (soybean; [5]): 0 | Plant response rating, Soybean (soybean; [6]): 0 | Plant response rating, Soybean (soybean; [7]): 2 | Plant response rating, Ducksalad (0 to 10 scale, 0 is no effect, 10 is complete control) (duck salad; [9]): 0 | Ducksalad plant response rating (0 to 10 scale, 0 is no effect, 10 is complete control) (duck salad; [10]): 0 | Ducksalad plant response rating (duck salad; [11]): 0 | Ducksalad plant response rating (duck salad; [12]): 0 | Plant response rating, S. Flatsedge (0 to 10 scale, 0 is no effect, 10 is complete control) (smallflower flatsedge; [9]): 0 | S. Flatsedge plant response rating (0 to 10 scale, 0 is no effect, 10 is complete control) (smallflower flatsedge; [10]): 0 | S. Flatsedge plant response rating (smallflower flatsedge; [11]): 0 | S. Flatsedge plant response rating (smallflower flatsedge; [12]): 0 | Plant response rating, B. signalgrass (surinam grass; [1]): 0 | Plant response rating, B. signalgrass (surinam grass; [2]): 0 | B. signalgrass plant response rating (surinam grass; [3]): 0 | B. signalgrass plant response rating (surinam grass; [4]): 0 | B. signalgrass plant response rating (surinam grass; [5]): 0 | Plant response rating, B. signalgrass (surinam grass; [6]): 0 | Plant response rating, B. signalgrass (surinam grass; [7]): 0 | B. signalgrass plant response rating (surinam grass; [8]): 0 | Plant response rating, Wheat (wheat; [1]): 0 | Wheat plant response rating (wheat; [2]): 0 | Wheat plant response rating (wheat; [4]): 0 | Wheat plant response rating (wheat; [5]): 0 | Plant response rating, Wheat (wheat; [6]): 0 | Plant response rating, Wheat (wheat; [7]): 3 | Wheat plant response rating (wheat; [8]): 0 | Plant response rating, Rice (0 to 10 scale, 0 is no effect, 10 is complete control) (rice; [9]): 0 | Rice plant response rating (0 to 10 scale, 0 is no effect, 10 is complete control) (rice; [10]): 0 | Rice plant response rating (rice; [11]): 0 | Rice plant response rating (rice; [12]): 0 | Plant response rating, Rape (rape; [1]): 0 | Rape plant response rating (rape; [2]): 0 | Rape plant response rating (rape; [4]): 0 | Rape plant response rating (rape; [5]): 0 | Plant response rating, Rape (rape; [6]): 0 | Plant response rating, Rape (rape; [7]): 4 | Rape plant response rating (rape; [8]): 0 | Plant response rating, Velvetleaf (velvetleaf; [1]): 0 | Velvetleaf plant response rating (velvetleaf; [2]): 0 | Velvetleaf plant response rating (velvetleaf; [4]): 0 | Velvetleaf plant response rating (velvetleaf; [5]): 0 | Plant response rating, Velvetleaf (velvetleaf; [6]): 0 | Plant response rating, Velvetleaf (velvetleaf; [7]): 3 | Velvetleaf plant response rating (velvetleaf; [8]): 2 | Plant response rating, Morningglory (morningglory; [1]): 0 | Morningglory plant response rating (morningglory; [2]): 0 | Morningglory plant response rating (morningglory; [3]): 4 | Morningglory plant response rating (morningglory; [4]): 0 | Morningglory plant response rating (morningglory; [5]): 0 | Plant response rating, Morningglory (morningglory; [6]): 0 | Plant response rating, Morningglory (morningglory; [7]): 7 | Morningglory plant response rating (morningglory; [8]): 4 | Plant response rating, Cocklebur (cocklebur; [1]): 0 | Cocklebur plant response rating (cocklebur; [2]): 0 | Cocklebur plant response rating (cocklebur; [3]): 0 | Cocklebur plant response rating (cocklebur; [4]): 0 | Cocklebur plant response rating (cocklebur; [5]): 0 | Plant response rating, Cocklebur (cocklebur; [6]): 0 | Plant response rating, Cocklebur (cocklebur; [7]): 0 | Cocklebur plant response rating (cocklebur; [8]): 2 | Plant response rating, Nutsedge (purple nutsedge; [1]): 0 | Nutsedge plant response rating (purple nutsedge; [2]): 0 | Nutsedge plant response rating (purple nutsedge; [4]): 0 | Nutsedge plant response rating (purple nutsedge; [5]): 0 | Plant response rating, Nutsedge (purple nutsedge; [6]): 0 | Plant response rating, Nutsedge (purple nutsedge; [7]): 0 | Nutsedge plant response rating (purple nutsedge; [8]): 0 | Plant response rating, Blackgrass (blackgrass; [1]): 0 | Blackgrass plant response rating (blackgrass; [2]): 0 | Blackgrass plant response rating (blackgrass; [3]): 0 | Blackgrass plant response rating (blackgrass; [4]): 0 | Blackgrass plant response rating (blackgrass; [5]): 0 | Plant response rating, Blackgrass (blackgrass; [6]): 0 | Plant response rating, Blackgrass (blackgrass; [7]): 0 | Blackgrass plant response rating (blackgrass; [8]): 2 | Plant response rating, Wild oats (wild oat; [1]): 0 | Wild oats plant response rating (wild oat; [2]): 0 | Wild oats plant response rating (wild oat; [4]): 0 | Wild oats plant response rating (wild oat; [5]): 0 | Plant response rating, Wild oats (wild oat; [6]): 0 | Plant response rating, Wild oats (wild oat; [7]): 0 | Wild oats plant response rating (wild oat; [8]): 0 | Plant response rating, Sugarbeets (sugar beet; [1]): 0 | Sugarbeets plant response rating (sugar beet; [2]): 0 | Sugarbeets plant response rating (sugar beet; [4]): 0 | Sugarbeets plant response rating (sugar beet; [5]): 0 | Plant response rating, Sugarbeets (sugar beet; [6]): 0 | Plant response rating, Sugarbeets (sugar beet; [7]): 0 | Sugarbeets plant response rating (sugar beet; [8]): 4 | Plant response rating, Giant foxtail (giant foxtail; [1]): 0 | Giant foxtail plant response rating (giant foxtail; [2]): 0 | Giant foxtail plant response rating (giant foxtail; [3]): 0 | Giant foxtail plant response rating (giant foxtail; [4]): 0 | Giant foxtail plant response rating (giant foxtail; [5]): 3 | Plant response rating, Giant foxtail (giant foxtail; [6]): 5 | Plant response rating, Giant foxtail (giant foxtail; [7]): 9 | Giant foxtail plant response rating (giant foxtail; [8]): 4 | Plant response rating, Barnyardgrass (0 to 10 scale, 0 is no effect, 10 is complete control) (bamyardgrass; [9]): 0 | Barnyardgrass plant response rating (0 to 10 scale, 0 is no effect, 10 is complete control) (bamyardgrass; [10]): 0 | Barnyardgrass plant response rating (bamyardgrass; [11]): 0 | Barnyardgrass plant response rating (bamyardgrass; [12]): 0 | Plant response rating, Corn (corn; [1]): 0 | Corn plant response rating (corn; [2]): 0 | Corn plant response rating (corn; [3]): 0 | Corn plant response rating (corn; [4]): 0 | Corn plant response rating (corn; [5]): 0 | Plant response rating, Corn (corn; [6]): 0 | Plant response rating, Corn (corn; [7]): 0 | Corn plant response rating (corn; [8]): 0 | Plant response rating, Redroot pigweed (pigweed; [1]): 0 | Redroot pigweed plant response rating (pigweed; [2]): 0 | Redroot pigweed plant response rating (pigweed; [4]): 0 | Redroot pigweed plant response rating (pigweed; [5]): 0 | Plant response rating, Redroot pigweed (pigweed; [6]): 7 | Plant response rating, Redroot pigweed (pigweed; [7]): 7 | Redroot pigweed plant response rating (pigweed; [8]): 0
